Results as given in publication PMC5937080, “Design, Synthesis and Biological Evaluation of Novel Peptide-Like Analogues as Selective COX-2 Inhibitors” (Iranian Journal of Pharmaceutical Research : IJPR, 2018).

Columns and labels:
COX-2 = target: T1, COX-2 (Ovis aries, UniProt P79208); assay: biochemical; conditions: for IC50: ovine COX-1/COX-2 assay kit, mean of two determinations, deviation < 10% of the mean
T1 construct: purchased Cayman chemical, MI, USA
T1 sequence (P79208 17-603): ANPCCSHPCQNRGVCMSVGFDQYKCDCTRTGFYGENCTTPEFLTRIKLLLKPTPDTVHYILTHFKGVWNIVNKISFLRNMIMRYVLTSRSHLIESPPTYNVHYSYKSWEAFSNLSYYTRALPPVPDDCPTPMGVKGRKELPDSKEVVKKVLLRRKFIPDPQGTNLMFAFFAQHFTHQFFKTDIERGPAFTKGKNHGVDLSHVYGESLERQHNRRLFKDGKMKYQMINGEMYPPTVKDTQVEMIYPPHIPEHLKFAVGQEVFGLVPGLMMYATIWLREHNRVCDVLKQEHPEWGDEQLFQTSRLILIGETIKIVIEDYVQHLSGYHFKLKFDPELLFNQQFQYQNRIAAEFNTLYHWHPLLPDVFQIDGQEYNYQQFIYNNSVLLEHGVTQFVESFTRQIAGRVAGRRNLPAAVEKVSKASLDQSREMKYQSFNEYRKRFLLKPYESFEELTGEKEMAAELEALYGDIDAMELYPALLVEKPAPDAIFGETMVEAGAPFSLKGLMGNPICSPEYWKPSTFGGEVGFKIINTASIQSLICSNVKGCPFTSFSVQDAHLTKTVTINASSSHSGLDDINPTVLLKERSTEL
Procedure: (§1) In-vitro cyclooxygenase (COX) inhibition assays
(§2) The assay was performed using an enzyme chemiluminescent kit (Cayman chemical, MI, USA) according to the previously reported method ([17]).

COX-1 = target: T2, COX-1 (Ovis aries, UniProt P05979); assay: biochemical; conditions: ovine COX-1/COX-2 assay kit; mean of two determinations, deviation < 10% of the mean
T2 construct: purchased Cayman chemical, MI, USA
T2 sequence (P05979 25-600): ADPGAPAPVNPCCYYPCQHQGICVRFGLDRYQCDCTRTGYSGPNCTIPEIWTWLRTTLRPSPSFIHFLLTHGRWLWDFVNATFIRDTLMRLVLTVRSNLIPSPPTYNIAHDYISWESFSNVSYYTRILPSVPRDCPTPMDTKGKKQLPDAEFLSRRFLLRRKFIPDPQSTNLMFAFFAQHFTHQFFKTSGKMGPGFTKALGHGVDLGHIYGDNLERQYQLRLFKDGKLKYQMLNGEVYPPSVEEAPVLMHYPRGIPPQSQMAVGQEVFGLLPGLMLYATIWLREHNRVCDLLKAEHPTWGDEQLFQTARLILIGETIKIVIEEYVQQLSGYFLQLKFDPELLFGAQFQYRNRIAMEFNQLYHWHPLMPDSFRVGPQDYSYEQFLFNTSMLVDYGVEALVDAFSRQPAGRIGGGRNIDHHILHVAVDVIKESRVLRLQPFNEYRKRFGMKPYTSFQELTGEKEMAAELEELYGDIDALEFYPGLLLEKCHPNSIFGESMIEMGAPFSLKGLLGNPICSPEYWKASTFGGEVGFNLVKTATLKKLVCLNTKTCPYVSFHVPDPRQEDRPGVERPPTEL
Procedure: as §1, §2

Compound	IC50 (COX-2) [µM]	IC50 (COX-1) [µM]	S.I. In-vitro COX-2 selectivity index (COX-1 IC50/COX-2 IC50) (COX-2)
[N-]=[N+]=Nc1ccc(C(=O)NC(Cc2c[nH]c3ccccc23)C(=O)O)cc1 (centres unmarked) [Compound 4d, p-N3Bz -Trp]	> 100	> 100	
[N-]=[N+]=Nc1ccc(C(=O)NC(Cc2ccc(O)cc2)C(=O)O)cc1 (centres unmarked) [Compound 3d, p-N3Bz -Tyr]	10.1	20.9	2.1
CS(=O)(=O)c1ccc(C(=O)NC(Cc2ccccc2)C(=O)O)cc1 (centres unmarked) [Compound 1c, p-(methylsulfonyl)benzoyl-phenylalanine]	> 100	> 100	
[N-]=[N+]=Nc1ccc(C(=O)NC(Cc2ccccc2)C(=O)O)cc1 (centres unmarked) [Compound 1d, p-azidobenzoyl-phenylalanine]	> 100	55.5	
CS(=O)(=O)c1ccc(C(=O)NC(Cc2cnc[nH]2)C(=O)O)cc1 (stereo not drawn) [Compound 2c, p-MeSO2Bz -His]	> 100	> 100	

Compounds with a lower IC50 (COX-2), results first:

IC50 (COX-2) [µM]	IC50 (COX-1) [µM]	S.I. In-vitro COX-2 selectivity index (COX-1 IC50/COX-2 IC50) (COX-2)	Compound
0.23	25.2	109.6	CS(=O)(=O)c1ccc(C(=O)NC(Cc2ccc(O)cc2)C(=O)O)cc1 (stereo not drawn) [Compound 3c, p-MeSO 2 Bz -Tyr]
0.09	16.6	184.4	CS(=O)(=O)c1ccc(C(=O)NC(Cc2c[nH]c3ccccc23)C(=O)O)cc1 (stereo not drawn) [Compound 4c, p-MeSO2Bz -Trp]
0.08	28.1	351.2	[N-]=[N+]=Nc1ccc(C(=O)NC(Cc2c[nH]cn2)C(=O)O)cc1 (centres unmarked) [Compound 2d, p-N3Bz -His]
